Measurements taken from ChEMBL document CHEMBL1201862, “PubChem BioAssay data set” (2004).
“And” between values parts separate entries of the source, which are not always exact repeats. Equal values may be shown once.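 Cultured in 96-well plates, cells were exposed to test compound for 48 hours across five concentrations. At the GI50, growth is halved.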 The source made the active and inactive calls. Rule as the data show it: active = GI50 up to about 1.1 µM and inactive = higher.

How the values were obtained:
Assay in all cases: NCI anticancer screen, dose series, 48 h
[1] = test system: U-251
[2] = test system: KM12
[3] = test system: SK-MEL-2
[4] = test system: SF-295
[5] = test system: K562
[6] = test system: HOP-62
[7] = test system: DMS-114
[8] = test system: LXFL 529
[9] = test system: LOX IMVI
[10] = test system: HCT-116
[11] = test system: NCI-H522
[12] = test system: UACC-62
[13] = test system: M19-MEL
[14] = test system: TK-10
[15] = test system: DMS-273
[16] = test system: HCT-15
[17] = test system: CCRF-CEM
[18] = test system: MOLT-4
[19] = test system: A549
[20] = test system: UO-31
[21] = test system: OVCAR-5
[22] = test system: DLD-1
[23] = test system: SK-OV-3
[24] = test system: A498
[25] = test system: SK-MEL-5
[26] = test system: HL-60
[27] = test system: UACC-257
[28] = test system: SK-MEL-28
[29] = test system: NCI-H23
[30] = test system: HT-29
[31] = test system: SNB-78
[32] = test system: RPMI-8226
[33] = test system: M14
[34] = test system: IGROV-1
[35] = test system: Malme-3M
[36] = test system: NCI-H460
[37] = test system: HOP-18
[38] = test system: CAKI-1
[39] = test system: KM-20L2
[40] = test system: SNB-19
[41] = test system: OVCAR-8
[42] = test system: SW-620
[43] = test system: SF-268
[44] = test system: 786-0
[45] = test system: OVCAR-3
[46] = test system: XF498
[47] = test system: EKVX
[48] = test system: SF-539
[49] = test system: HOP-92
[50] = test system: SR
[51] = test system: SNB-75
[52] = test system: HCC 2998
[53] = test system: RXF 393
[54] = test system: MDA-MB-231
[55] = test system: ACHN
[56] = test system: MCF7
[57] = test system: Hs-578T
[58] = test system: OVCAR-4

Measured: GI50

O=c1cc(-c2ccccc2)oc2cc(OCC(O)COc3ccc4c(=O)cc(-c5ccccc5)oc4c3)ccc12
inactive: [1] 20.8 µM | [2] > 100 µM | [3] 21.5 µM | [4] 38.4 µM | [5] 42.8 µM | [6] 8.43 µM | [7] > 100 µM | [8] 40 µM | [9] 25.3 µM | [10] 42.5 µM | [11] 28.4 µM | [12] > 100 µM | [13] 56.4 µM | [14] 42.4 µM | [15] 41.9 µM | [17] 33 µM | [18] 40.2 µM | [19] > 100 µM | [20] > 100 µM | [21] > 100 µM | [22] > 100 µM | [23] 16.8 µM | [24] > 100 µM | [25] > 100 µM | [26] 23 µM | [27] > 100 µM | [28] > 100 µM | [29] 43.9 µM | [30] > 100 µM | [31] 13.6 µM | [32] > 100 µM | [33] > 100 µM | [34] > 100 µM | [35] > 100 µM | [36] 40.3 µM | [37] > 100 µM | [38] > 100 µM | [39] > 100 µM | [40] 20.2 µM | [41] 19.1 µM | [42] 61.2 µM | [43] 14.6 µM | [44] 17.4 µM | [45] 32.5 µM | [46] 23.4 µM | [47] > 100 µM | [48] 22.4 µM | [49] 26.5 µM
89.1 µM: [16]

COc1ccc2cc1Oc1ccc(cc1)C[C@H]1c3cc(c(OC)cc3CCN1C)Oc1c(OC)c(OC)cc3c1[C@H](C2)N(C)CC3 [FANCHININ]
inactive: [1] 35.7 µM and 7.66 µM | [50] 2.47 µM and 12.1 µM | [4] 8.93 µM and 36.2 µM | [5] 41.2 µM and 1.57 µM | [51] 43.2 µM and 6.55 µM | [6] 5.94 µM | [7] 7.36 µM | [10] 4.5 µM and 50.5 µM | [11] 34.8 µM and 6.61 µM | [14] 22.9 µM and 8.41 µM | [15] 6.31 µM | [52] 1.71 µM | [17] 33 µM and 3.54 µM | [53] 5.08 µM | [54] 5.64 µM and 19.8 µM | [22] 9.29 µM | [55] 7.93 µM and 17.1 µM | [23] 5.9 µM and 45.8 µM | [24] 7.33 µM and 60.5 µM | [25] 6.1 µM and 57.3 µM | [26] 7.8 µM and 99.5 µM | [27] 43.1 µM and 5.79 µM | [29] 77.4 µM and 8.43 µM | [31] 9.44 µM | [32] 4.44 µM | [56] 82 µM and 6.43 µM | [34] 9.2 µM and 49.2 µM | [57] 8.63 µM and 30.1 µM | [36] 6.71 µM | [37] 9.42 µM | [39] 3.8 µM | [40] 17.4 µM and 6.61 µM | [58] 2.42 µM | [41] 8.38 µM and 53.7 µM | [43] 74.6 µM and 8.05 µM | [44] 3.05 µM and 43.5 µM | [45] 7.46 µM | [46] 10.6 µM | [48] 20.1 µM and 4.78 µM | [49] 1.79 µM and 57.1 µM
7.78 µM: [16]
26.2 µM (inactive) and 260 nM (active): [33]
